{"source": "PubChem BioAssay AID2060600", "about": "(Molecular Pharmacology Branch, DTP, NCI, 2025);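 note: spheroids exposed to the agents for 7 days before readout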", "tested_on": "996289-038-R-J1-PDC complex spheroid viability", "assay": "Anticancer human tumor 996289-038-R-J1-PDC patient-derived colon adenocarcinoma cell line growth inhibition [CLK]", "settings": "for IC50: curve of first compound; for viability, T/C: stronger effect = lower value", "summary_of_the_method": "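Patient-derived tumor cells grown as complex spheroids with HUVEC endothelial cells and mesenchymal stem cells, treated with drug combinations. Concentrations descend in half-log steps from near clinical Cmax, or from 10 microM if Cmax unknown.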", "key": {"[1]": {"settings": "second compound 0.0316 µM, first compound 0.0316 µM"}, "[2]": {"settings": "second compound 0.0316 µM, first compound 0.1 µM"}, "[3]": {"settings": "second compound 0.0316 µM, first compound 0.316 µM"}, "[4]": {"settings": "second compound 0.0316 µM, first compound 1 µM"}, "[5]": {"settings": "second compound 0.1 µM, first compound 0.0316 µM"}, "[6]": {"settings": "second compound 0.1 µM, first compound 0.1 µM"}, "[7]": {"settings": "second compound 0.1 µM, first compound 0.316 µM"}, "[8]": {"settings": "second compound 0.1 µM, first compound 1 µM"}, "[9]": {"settings": "second compound 0.316 µM, first compound 0.0316 µM"}, "[10]": {"settings": "second compound 0.316 µM, first compound 0.1 µM"}, "[11]": {"settings": "second compound 0.316 µM, first compound 0.316 µM"}, "[12]": {"settings": "second compound 0.316 µM, first compound 1 µM"}, "[13]": {"settings": "second compound 1 µM, first compound 0.0316 µM"}, "[14]": {"settings": "second compound 1 µM, first compound 0.1 µM"}, "[15]": {"settings": "second compound 1 µM, first compound 0.316 µM"}, "[16]": {"settings": "second compound 1 µM, first compound 1 µM"}, "[17]": {"settings": "second compound 3.16 µM, first compound 0.0316 µM"}, "[18]": {"settings": "second compound 3.16 µM, first compound 0.1 µM"}, "[19]": {"settings": "second compound 3.16 µM, first compound 0.316 µM"}, "[20]": {"settings": "second compound 3.16 µM, first compound 1 µM"}, "[21]": {"settings": "second compound 10 µM, first compound 0.0316 µM"}, "[22]": {"settings": "second compound 10 µM, first compound 0.1 µM"}, "[23]": {"settings": "second compound 10 µM, first compound 0.316 µM"}, "[24]": {"settings": "second compound 10 µM, first compound 1 µM"}}}
{"smiles": "CC(=O)O[C@H]1C(=O)[C@@]2(C)[C@H]([C@H](OC(=O)c3ccccc3)[C@]3(O)C[C@H](OC(=O)[C@H](O)[C@@H](NC(=O)c4ccccc4)c4ccccc4)C(C)=C1C3(C)C)[C@]1(OC(C)=O)CO[C@@H]1C[C@@H]2O", "note": "+ CN1CCN(c2cc(C(=O)Nc3cc4cc(-c5cnn(C)c5)ccc4cn3)ccn2)CC1", "values": [{"measurement": "IC50", "setting": "second compound 0.0316 µM", "value": "> 10000", "unit": "nM"}, {"measurement": "IC50", "setting": "second compound 0.1 µM", "value": 947, "unit": "nM"}, {"measurement": "IC50", "setting": "second compound 0.316 µM", "value": 50.7, "unit": "nM"}, {"measurement": "IC50", "setting": "second compound 1 µM", "value": "< 31.6", "unit": "nM"}, {"measurement": "IC50", "setting": "second compound 3.16 µM", "value": "< 31.6", "unit": "nM"}, {"measurement": "IC50", "setting": "second compound 10 µM", "value": "< 31.6", "unit": "nM"}, {"measurement": "viability, T/C", "setting": "[1]", "value": 94, "unit": "%"}, {"measurement": "viability, T/C", "setting": "[2]", "value": 80.4, "unit": "%"}, {"measurement": "viability, T/C", "setting": "[3]", "value": 64.1, "unit": "%"}, {"measurement": "viability, T/C", "setting": "[4]", "value": 57.5, "unit": "%"}, {"measurement": "viability, T/C", "setting": "second compound 0.0316 µM, first compound 3.16 µM", "value": 54.8, "unit": "%"}, {"measurement": "viability, T/C", "setting": "second compound 0.0316 µM, first compound 10 µM", "value": 54.5, "unit": "%"}, {"measurement": "viability, T/C", "setting": "[5]", "value": 83.2, "unit": "%"}, {"measurement": "viability, T/C", "setting": "[6]", "value": 77.6, "unit": "%"}, {"measurement": "viability, T/C", "setting": "[7]", "value": 58.6, "unit": "%"}, {"measurement": "viability, T/C", "setting": "[8]", "value": 50, "unit": "%"}, {"measurement": "viability, T/C", "setting": "second compound 0.1 µM, first compound 3.16 µM", "value": 48.1, "unit": "%"}, {"measurement": "viability, T/C", "setting": "second compound 0.1 µM, first compound 10 µM", "value": 48.2, "unit": "%"}, {"measurement": "viability, T/C", "setting": "[9]", "value": 52.1, "unit": "%"}, {"measurement": "viability, T/C", "setting": "[10]", "value": 49.1, "unit": "%"}, {"measurement": "viability, T/C", "setting": "[11]", "value": 39.1, "unit": "%"}, {"measurement": "viability, T/C", "setting": "[12]", "value": 34.2, "unit": "%"}, {"measurement": "viability, T/C", "setting": "second compound 0.316 µM, first compound 3.16 µM", "value": 36.9, "unit": "%"}, {"measurement": "viability, T/C", "setting": "second compound 0.316 µM, first compound 10 µM", "value": 38.3, "unit": "%"}, {"measurement": "viability, T/C", "setting": "[13]", "value": 2.95, "unit": "%"}, {"measurement": "viability, T/C", "setting": "[14]", "value": 3.46, "unit": "%"}, {"measurement": "viability, T/C", "setting": "[15]", "value": 2.81, "unit": "%"}, {"measurement": "viability, T/C", "setting": "[16]", "value": 5.29, "unit": "%"}, {"measurement": "viability, T/C", "setting": "second compound 1 µM, first compound 3.16 µM", "value": 3.96, "unit": "%"}, {"measurement": "viability, T/C", "setting": "second compound 1 µM, first compound 10 µM", "value": 3.89, "unit": "%"}, {"measurement": "viability, T/C", "setting": "[17]", "value": 2.65, "unit": "%"}, {"measurement": "viability, T/C", "setting": "[18]", "value": 0.84, "unit": "%"}, {"measurement": "viability, T/C", "setting": "[19]", "value": 1.67, "unit": "%"}, {"measurement": "viability, T/C", "setting": "[20]", "value": 2.13, "unit": "%"}, {"measurement": "viability, T/C", "setting": "second compound 3.16 µM, first compound 3.16 µM", "value": 1.35, "unit": "%"}, {"measurement": "viability, T/C", "setting": "second compound 3.16 µM, first compound 10 µM", "value": 0.72, "unit": "%"}, {"measurement": "viability, T/C", "setting": "[21]", "value": 1.84, "unit": "%"}, {"measurement": "viability, T/C", "setting": "[22]", "value": 1.49, "unit": "%"}, {"measurement": "viability, T/C", "setting": "[23]", "value": 0.61, "unit": "%"}, {"measurement": "viability, T/C", "setting": "[24]", "value": 0.57, "unit": "%"}, {"measurement": "viability, T/C", "setting": "second compound 10 µM, first compound 3.16 µM", "value": 0.83, "unit": "%"}, {"measurement": "viability, T/C", "setting": "second compound 10 µM, first compound 10 µM", "value": 2.14, "unit": "%"}]}
{"smiles": "CCc1c2c(nc3ccc(O)cc13)-c1cc3c(c(=O)n1C2)COC(=O)[C@]3(O)CC", "note": "+ CN1CCN(c2cc(C(=O)Nc3cc4cc(-c5cnn(C)c5)ccc4cn3)ccn2)CC1", "values": [{"measurement": "IC50", "setting": "second compound 0.0316 µM", "value": 126, "unit": "nM"}, {"measurement": "IC50", "setting": "second compound 0.1 µM", "value": 58.6, "unit": "nM"}, {"measurement": "IC50", "setting": "second compound 0.316 µM", "value": 16.6, "unit": "nM"}, {"measurement": "IC50", "setting": "second compound 1 µM", "value": "< 3.16", "unit": "nM"}, {"measurement": "IC50", "setting": "second compound 3.16 µM", "value": "< 3.16", "unit": "nM"}, {"measurement": "IC50", "setting": "second compound 10 µM", "value": "< 3.16", "unit": "nM"}, {"measurement": "viability, T/C", "setting": "second compound 0.0316 µM, first compound 0.00316 µM", "value": 89.7, "unit": "%"}, {"measurement": "viability, T/C", "setting": "second compound 0.0316 µM, first compound 0.01 µM", "value": 79.2, "unit": "%"}, {"measurement": "viability, T/C", "setting": "[1]", "value": 57.2, "unit": "%"}, {"measurement": "viability, T/C", "setting": "[2]", "value": 56.6, "unit": "%"}, {"measurement": "viability, T/C", "setting": "[3]", "value": 43, "unit": "%"}, {"measurement": "viability, T/C", "setting": "[4]", "value": 26.9, "unit": "%"}, {"measurement": "viability, T/C", "setting": "second compound 0.1 µM, first compound 0.00316 µM", "value": 91, "unit": "%"}, {"measurement": "viability, T/C", "setting": "second compound 0.1 µM, first compound 0.01 µM", "value": 70.7, "unit": "%"}, {"measurement": "viability, T/C", "setting": "[5]", "value": 55.6, "unit": "%"}, {"measurement": "viability, T/C", "setting": "[6]", "value": 44.8, "unit": "%"}, {"measurement": "viability, T/C", "setting": "[7]", "value": 33.8, "unit": "%"}, {"measurement": "viability, T/C", "setting": "[8]", "value": 19.5, "unit": "%"}, {"measurement": "viability, T/C", "setting": "second compound 0.316 µM, first compound 0.00316 µM", "value": 57.9, "unit": "%"}, {"measurement": "viability, T/C", "setting": "second compound 0.316 µM, first compound 0.01 µM", "value": 51.2, "unit": "%"}, {"measurement": "viability, T/C", "setting": "[9]", "value": 46.2, "unit": "%"}, {"measurement": "viability, T/C", "setting": "[10]", "value": 35, "unit": "%"}, {"measurement": "viability, T/C", "setting": "[11]", "value": 17.7, "unit": "%"}, {"measurement": "viability, T/C", "setting": "[12]", "value": 6.98, "unit": "%"}, {"measurement": "viability, T/C", "setting": "second compound 1 µM, first compound 0.00316 µM", "value": 6.14, "unit": "%"}, {"measurement": "viability, T/C", "setting": "second compound 1 µM, first compound 0.01 µM", "value": 5.27, "unit": "%"}, {"measurement": "viability, T/C", "setting": "[13]", "value": 2.85, "unit": "%"}, {"measurement": "viability, T/C", "setting": "[14]", "value": 1.7, "unit": "%"}, {"measurement": "viability, T/C", "setting": "[15]", "value": 3.66, "unit": "%"}, {"measurement": "viability, T/C", "setting": "[16]", "value": 5.38, "unit": "%"}, {"measurement": "viability, T/C", "setting": "second compound 3.16 µM, first compound 0.00316 µM", "value": 1.13, "unit": "%"}, {"measurement": "viability, T/C", "setting": "second compound 3.16 µM, first compound 0.01 µM", "value": 0.73, "unit": "%"}, {"measurement": "viability, T/C", "setting": "[17]", "value": 1.24, "unit": "%"}, {"measurement": "viability, T/C", "setting": "[18]", "value": 1.43, "unit": "%"}, {"measurement": "viability, T/C", "setting": "[19]", "value": 3.98, "unit": "%"}, {"measurement": "viability, T/C", "setting": "[20]", "value": 8.54, "unit": "%"}, {"measurement": "viability, T/C", "setting": "second compound 10 µM, first compound 0.00316 µM", "value": 1.3, "unit": "%"}, {"measurement": "viability, T/C", "setting": "second compound 10 µM, first compound 0.01 µM", "value": 2.51, "unit": "%"}, {"measurement": "viability, T/C", "setting": "[21]", "value": 0.56, "unit": "%"}, {"measurement": "viability, T/C", "setting": "[22]", "value": 0.63, "unit": "%"}, {"measurement": "viability, T/C", "setting": "[23]", "value": 0.8, "unit": "%"}, {"measurement": "viability, T/C", "setting": "[24]", "value": 3.96, "unit": "%"}]}
